Data taken from US5874461A, “Use of Nebivolol as an anti-atherogenic” (priority 1995, dated 1999).

Tests used:
[1] = tested on: primary embryonic hippocampal cultures; test: VitE complementation (vitE depletion) test on primary neuronal cultures; assay type: cell-based, rats; conditions: for rescue of survival of vitE depleted cultures: 10^-7 M and 10^-6 M
Procedure: Primary embryonic hippocampal cultures were prepared essentially as described previously (Pauwels et al., Van Aschouw, H. P., Peeters, L., Moeremans, M., Leysen, J. E. (1992) Chronic treatment with sabeluzole protects cultured rat brain neurons from the neurotoxic effects of excitatory amino acids. Synapse, 12:271-280). Hippocampal formations of rats at embryonic day 17 were dissected and dissociated in 0.05% trypsin, 0.1 mg/ml DNase I in DMEM (Dulbecco Modified Eagle Medium). Heat-inactivated horse serum (HS) was added to a concentration of 4%, and the cells were centrifuged, washed with DMEM, and resuspended in DMEM/Ham's F12 (3:1) containing 10% HS. The cells were plated at a density of 4×10^5 cells/cm^2 in poly L-lysine (0.001%) precoated multiwell-24 plates. On day 1 in culture, the medium was changed to chemically defined CDM-R12 medium (DMEM-HEPES/Ham's F12 (3:1) containing 0.26% bovine serum albumin, 30 nM sodium selenite, 3 nM 3,3',5 triiodo-L-thyronine, 0.35 μM retinol, 0.3 μM retinol acetate, 2.3 μM DL-a-tocopherol, 2.1 μM DL-a-tocopherol acetate, 3.6 μM linolenic acid, 3.6 μM linoleic acid, 0.125% human transferrin, […], 57.7 nM corticosterone, 49 U/I insulin, 0.4 μM biotin, 10 μM L-carnitine, 83 μM D(+)-galactose, 3.3 μM glutathione, 10 μM ethanolamine, 0.1 mM putrescine; Romijn, H. J., van Huizen, F., Wolters, P. S. (1984) Towards an improved serum-free, chemically defined medium for long-term culturing of cerebral cortex tissue. Neurosci. Behav. Rev., 8:301-334). Acute and prolonged pretreatment of the, cultures was essentially as described previously (Pauwels et al., 1992). Drugs were dissolved, and diluted in 10% or 1% hydroxypropyl-β-cyclodextrin such that the final concentrations of the solvent in the acute and chronic exposures were 0.1% and 0.01% respectively. Compound A as used in the following examples is [(RRSR)+(RRRS)+(SSSR) +(SSRS)]-α-[[[2-(chroman-2-yl)-2-hydroxy-ethyl]amino]methyl]-6-hydroxy-2-chromanmethanol ethanedioate (1:1).
For vitE depletion experiments, primary cultures were set up as above, but on day 1 in culture, the medium was changed to chemically defined CDM-R12 medium with (control) or without DL-a-tocopherol (vitE) and DL-a-tocopherol acetate, in the presence or absence of test coumpound. […] Addition of compounds could rescue the cultures. […] The EC50 for complementation of vitE refers to the concentration of the compound required to restore culture survival to 50% of the survival seen for the culture grown in vitE supplemented medium. Seven concentrations of each compound were tested in triplicate, the number of independent experiments is indicated in the table, and the mean EC50 -value±SD was calculated.
Primary neuronal cultures depend on the presence of the antioxidant vitE in the culture medium for survival in vitro. When vitE depleted medium is used to grow the cultures, survival drops to ±20% of control. Compounds with antioxidative properties are able to complement the lack of vitE, and as such can when added to the culture medium, rescue vitE devoid cultures. Several nebivolol derivatives were tested at 10^-7 M and 10^-6 M in the vitE depletion test on primary neuronal cultures.
When nebivolol derivatives were administered during culture, the cultures could be rescued to a certain extent. 100% vitE complementation refers to the survival of a cell culture which is indifferent from a vitE containing cell culture.
When hydroxynebivolol was administered during culture, the cultures could be rescued. The EC50 refers to the concentration at which the culture is rescued for 50%, as measured by cytoplasmic LDH activity.

β-1 = conditions: EP-0,334,429; cited from earlier work
[2] = atenolol, propanolol, prazosin, hydralazine and its own (SRRR) enantiomer; EP-0,334,429; cited from earlier work

SMILES | % vitE complementation ([1]; 10^-6 M) | % vitE complementation ([1]; 10^-7 M) | rescue of survival of vitE depleted cultures [1] | β-1 blocking activity (β-1) | potentiation of antihypertensive agents [2]
O[C@H](CNC[C@@H](O)[C@H]1CCc2cc(F)ccc2O1)[C@@H]1CCc2cc(F)ccc2O1 [Compound 1-nebivolol, (SRRR) α,α'-iminobis(methylene)bis[6-fluoro-2-chroman-methanol]] | 24 ± 26% | 22 ± 20% | able to rescue survival of vitE depleted cultures to a certain extent | potent and selective β-1 blocking agent | –
O[C@@H](CNC[C@H](O)[C@H]1CCc2cc(F)ccc2O1)[C@@H]1CCc2cc(F)ccc2O1 [d-nebivolol, (RSSS) α,α'-iminobis(methylene)bis[6-fluoro-2-chroman-methanol]] | 19 ± 22% | 12 ± 17% | able to rescue survival of vitE depleted cultures to a certain extent | not to be a potent β-1 blocking agent | potentiator for a series of antihypertensive agents
